According to US8735433B1, “Aryl oxadiazole derivatives as sphingosine 1-phosphate (S1P) receptor modulators” (Allergan, Inc., priority 2012, dated 2014):

Target: T1, human S1P1 receptor (Homo sapiens, UniProt P21453)
T1 construct: expressed in transfected cells; membrane preparation
Assay: GTP γ35S binding assay for S1P1 activity
Assay type: biochemical
Settings: membranes of cells stably expressing the S1P1 receptor, test compounds 0.08 to 5,000 nM, 30 min at 25° C.
Description: Compounds were synthesized and tested for S1P1 activity using the GTP γ^35S binding assay. These compounds may be assessed for their ability to activate or block activation of the human S1P1 receptor in cells stably expressing the S1P1 receptor.
GTP γ^35S binding was measured in the medium containing (mM) HEPES 25, pH 7.4, MgCl2 10, NaCl 100, dithitothreitol 0.5, digitonin 0.003%, 0.2 nM GTP γ^35S, and 5 μg membrane protein in a volume of 150 μl. Test compounds were included in the concentration range from 0.08 to 5,000 nM unless indicated otherwise. Membranes were incubated with 100 μM 5′-adenylylimmidodiphosphate for 30 min, and subsequently with 10 μM GDP for 10 min on ice. Drug solutions and membrane were mixed, and then reactions were initiated by adding GTP γ^35S and continued for 30 min at 25° C. Reaction mixtures were filtered over Whatman GF/B filters under vacuum, and washed three times with 3 mL of ice-cold buffer (HEPES 25, pH7.4, MgCl2 10 and NaCl 100). Filters were dried and mixed with scintillant, and counted for ^35S activity using a β-counter. Agonist-induced GTP γ^35S binding was obtained by subtracting that in the absence of agonist. Binding data were analyzed using a non-linear regression method. In case of antagonist assay, the reaction mixture contained 10 nM S1P in the presence of test antagonist at concentrations ranging from 0.08 to 5000 nM.

T1 sequence (P21453 whole entry): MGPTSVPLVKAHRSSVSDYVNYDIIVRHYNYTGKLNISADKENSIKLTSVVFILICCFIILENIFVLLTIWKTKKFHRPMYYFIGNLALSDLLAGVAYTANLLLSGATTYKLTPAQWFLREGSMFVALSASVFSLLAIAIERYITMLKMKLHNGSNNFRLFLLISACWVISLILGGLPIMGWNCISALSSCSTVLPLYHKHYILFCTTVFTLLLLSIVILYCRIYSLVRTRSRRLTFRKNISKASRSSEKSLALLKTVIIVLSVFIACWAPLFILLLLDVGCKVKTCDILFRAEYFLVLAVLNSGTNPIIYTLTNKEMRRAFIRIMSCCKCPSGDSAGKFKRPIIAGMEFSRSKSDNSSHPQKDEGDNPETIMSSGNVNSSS

Structure (SMILES)	EC50
Cc1ccc(CC(c2nc(-c3ccc(CCC(N)(CO)CO)cc3)no2)c2cccs2)cc1C (stereo not drawn)	1210 nM
Cc1ccc(CC(c2cccc(Cl)c2)c2nc(-c3ccc(CCC(N)(CO)CO)cc3)no2)cc1C (stereo not drawn) [2-amino-2-[2-(4-{5-[1-(3-chlorophenyl)-2-(3,4-dimethylphenyl)ethyl]-1,2,4-oxadiazol-3-yl}phenyl)ethyl]propane-1,3-diol]	175 nM
Cc1ccc(CC(c2cc(F)cc(F)c2)c2nc(-c3ccc(CCC(N)(CO)CO)cc3)no2)cc1C (stereo not drawn) [Compound 1, 2-amino-2-[2-(4-{5-[1-(3,5-difluorophenyl)-2-(3,4-dimethylphenyl)ethyl]-1,2,4-oxadiazol-3-yl}phenyl)ethyl]propane-1,3-diol]	87.2 nM
